The text below walks through data of patent US20250163104A1, “MACROCYCLIC IMMUNOMODULATORS” (priority 2021, published 2025).

The assay concerns the target T1, human PD-1 / PD-L1-Ig binding on Jurkat cell line over-expressing human PD-1 (Jurkat-PD-1) (Homo sapiens, UniProt Q15116).
T1 construct: expressed in transfected cells; host or cells: Jurkat
Kind of assay: Jurkat-PD-1 Cell Binding High-Content Screening Assay (CBA). The class given is cell-based. The note with it: Jurkat-PD-1 cells, PE-labeled PD-L1-Ig 20 nM final; read-out: Jurkat HPD1_PDL1 IC50. In short, it runs like this: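 PE-PD-L1-Ig 20 nM final; cells in DMEM/10% FCS; cpd pre-incubation 2 h, 37° C; ligand 1 h; PFA fix + Hoechst 33342; high-content imaging read-out.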

Where a SMILES comes first, the peptide text is derived from it. Bridges are numbered along the chain shown (N, C = ends). [ ]: non-standard residue; d: D form. The star is where a group is joined. ξ: configuration not given here. Bip = N[C@@H](Cc1ccc(-c2ccccc2)cc1)C(=O)O; Phe(3-Me) = Cc1cccc(C[C@H](N)C(=O)O)c1; Val(3-OH) = CC(C)(O)[C@H](N)C(=O)O; h4Pal = N[C@@H](CCc1ccncc1)C(=O)O; Benzoyl(4-F) = O=C(c1ccc(F)cc1)*; Cha = N[C@@H](CC1CCCCC1)C(=O)O; Cit = NC(=O)NCCC[C@H](N)C(=O)O; Thr(3ξ) = CC(O)[C@H](N)C(=O)O; Carboxymethyl = O=C(O)C*; Orn = NCCC[C@H](N)C(=O)O; Pra = C#CC[C@H](N)C(=O)O; Dab = NCC[C@H](N)C(=O)O; Dap = NC[C@H](N)C(=O)O

T1 sequence (Q15116 25-288): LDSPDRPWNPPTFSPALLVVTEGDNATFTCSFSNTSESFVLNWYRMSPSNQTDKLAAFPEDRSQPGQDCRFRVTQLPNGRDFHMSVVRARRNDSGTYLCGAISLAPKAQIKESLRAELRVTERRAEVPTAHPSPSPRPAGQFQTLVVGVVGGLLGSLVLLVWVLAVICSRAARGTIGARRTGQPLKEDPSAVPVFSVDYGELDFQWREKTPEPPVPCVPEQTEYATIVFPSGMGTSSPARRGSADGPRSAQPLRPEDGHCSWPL

As usually defined, the IC50 is the concentration that inhibits the measured activity by half. As to `CC[C@H](C)[C@@H]1NC(=O)[C@H](Cc2ccc(-c3ccccc3)cc2)NC(=O)[C@H](C(C)C)NC(=O)[C@H](Cc2c[nH]c3ccccc23)NC(=O)[C@H](CC(=O)O)NC(=O)[C@H](Cc2ccc(O)cc2)NC(=O)[C@H](Cc2ccc(OCC(=O)O)cc2)NC(=O)CSC[C@@H](C(=O)N[C@@H](C)C(N)=O)NC(=O)[C@H]([C@@H](C)O)NC(=O)[C@H](C(C)C)NC(=O)[C@H](CC2CCCCC2)NC(=O)[C@H](CCCNC(=N)N)NC(=O)[C@@H](CC(C)C)NC(=O)[C@H](CCCN)NC1=O` [Compound 1146] ({CH2CO}-Y(Carboxymethyl)YDWV[Bip]I[Orn][dL]R[Cha]VTCA-NH2; thioether N-14), the IC50 was 0.0423 µM.
Turning to `Cc1cccc(C[C@@H]2NC(=O)[C@H](CC(=O)O)NC(=O)[C@H](Cc3ccc(OCC(=O)O)cc3)NC(=O)[C@H](Cc3ccccc3)NC(=O)CSC[C@@H](C(=O)N[C@@H](C)C(N)=O)NC(=O)[C@H](C(C)O)NC(=O)[C@H](C(C)C)NC(=O)[C@H](CC3CCCCC3)NC(=O)[C@H](CN)NC(=O)[C@@H](CC(C)C)NC(=O)[C@H](CCCN)NC(=O)[C@H](CCCNC(N)=O)NC(=O)[C@H](Cc3ccc(-c4ccccc4)cc3)NC(=O)[C@H](C(C)C)NC2=O)c1` (stereo partly drawn) [Compound 2500] ({CH2CO}-FY(Carboxymethyl)D[Phe(3-Me)]V[Bip][Cit][Orn][dL][Dap][Cha]V[Thr(3ξ)]CA-NH2; thioether N-14), the IC50 turned out to be 0.01 µM.
In the case of `Cc1cccc(C[C@@H]2NC(=O)[C@H](CC(=O)O)NC(=O)[C@H](Cc3ccc(OCC(=O)O)cc3)NC(=O)[C@H](CCNC(=O)c3ccc(F)cc3)NC(=O)CSC[C@@H](C(N)=O)NC(=O)[C@H]([C@@H](C)O)NC(=O)[C@H](C(C)C)NC(=O)[C@H](CC3CCCCC3)NC(=O)[C@H](CCN)NC(=O)[C@@H](CC(C)C)NC(=O)[C@H](CCCN)NC(=O)[C@H](Cc3ccc(OCC(=O)O)cc3)NC(=O)[C@H](Cc3ccc(-c4ccccc4)cc3)NC(=O)[C@H](Cc3ccc(O)cc3)NC2=O)c1` [Compound 2049] ({CH2CO}-[Dab](Benzoyl(4-F))Y(Carboxymethyl)D[Phe(3-Me)]Y[Bip]Y(Carboxymethyl)[Orn][dL][Dab][Cha]VTC-NH2; thioether N-14) it was 0.0793 µM.
Turning to `Cc1cccc(C[C@@H]2NC(=O)[C@H](CC(=O)O)NC(=O)[C@H](CCc3ccncc3)NC(=O)[C@H](CN)NC(=O)CSC[C@@H](C(=O)N[C@@H](C)C(N)=O)NC(=O)[C@H]([C@@H](C)O)NC(=O)[C@H](C(C)C)NC(=O)[C@H](CC(C)C)NC(=O)[C@H](CCN)NC(=O)[C@@H](CC(C)C)NC(=O)[C@H](CCCN)NC(=O)[C@H](C(C)C)NC(=O)[C@H](Cc3ccc(-c4ccccc4)cc3)NC(=O)[C@H](C(C)C)NC2=O)c1` [Compound 1253] ({CH2CO}-[Dap][h4Pal]D[Phe(3-Me)]V[Bip]V[Orn][dL][Dab]LVTCA-NH2; thioether N-14), the concentration for half-maximal inhibition (IC50) was determined as 0.0068 µM.
To `C#CC[C@H](NC(=O)[C@@H](C)NC(=O)[C@@H]1CSCC(=O)N[C@@H](Cc2c[nH]cn2)C(=O)N[C@@H](Cc2ccc(OCC(=O)O)cc2)C(=O)N[C@@H](CC(=O)O)C(=O)N[C@@H](Cc2c[nH]c3ccccc23)C(=O)N[C@@H](C(C)C)C(=O)N[C@@H](Cc2ccc(-c3ccccc3)cc2)C(=O)N[C@@H](C(C)C)C(=O)N[C@@H](CCCN)C(=O)N[C@H](CC(C)C)C(=O)N[C@@H](CCN)C(=O)N[C@@H](CC2CCCCC2)C(=O)N[C@@H](C(C)(C)O)C(=O)N[C@@H](CO)C(=O)N1)C(N)=O` [Compound 2326] ({CH2CO}-HY(Carboxymethyl)DWV[Bip]V[Orn][dL][Dab][Cha][Val(3-OH)]SC[dA][Pra]-NH2; thioether N-14) belongs 0.0077 µM.
